# From patent publication US9394544B2, “Ameliorating oxidative stress in neurodegenerative disease via Nox1 targeting” (University of Central Florida Research Foundation, Inc., priority 2013, dated 2016)
# Test system: rat SN
# Test: Western blot / dot blot / protein carbonyl immunoblot of SN lysates, PQ rat model
# Type: in vivo
# Protocol: The experiments were performed on rats, in accordance with the National Institutes for Health Guide for the Care and Use of Laboratory Animals. All procedures were approved by the local Animal Care and Use Committee. Male Wistar rats (8-10 weeks; Charles River) were maintained in a temperature/humidity-controlled environment under a 12 h light/dark cycle with ad libitum access to food and water. As depicted in FIG. 13A, each animal received four intraperitoneal injections, separated by 1 d, of either vehicle (saline) or PQ (10 mg/kg body weight; b.w.), according to a previously published dose (Manning-Bog et al., 2002; Harraz et al., 2008; Cristovao et al., 2009). All animals were weighed at day 1 and 12. In the studies using the paradigm depicted in FIG. 13A, 4 weeks before starting PQ intraperitoneal injection, animals were stereotaxically injected with various viral constructs at the right SN using the following coordinates: mediolateral, +2.0; anteroposterior, −5.3; dorsoventral, −6.8. Animals were organized into four groups: vector+vehicle: stereotaxically injected with adeno-associated virus (AAV) particles containing a green fluorescent protein (GFP) vector (vector) and then intraperitoneally injected with saline (vehicle) (n=10); vector+PQ: stereotaxically injected with vector and then intraperitoneally injected with PQ (n=10); shNox1+PQ: stereotaxically injected with AAV particles harboring Nox1 shRNA and then intraperitoneally injected with PQ (n=10); shNox1+vehicle: stereotaxically injected with Nox1 shRNA and then intraperitoneally injected with vehicle (n=8). AAV containing GFP vector was used as a negative control. Five days after the last PQ intraperitoneal injection, animals were killed. For Western blot analysis, brains were collected and total protein lysates from SN were prepared. For immunohistochemical analysis, animals were intracardially perfused before collecting the brains.
# For Western blot, brain tissues were lysed on ice in radioimmunoprecipitation assay buffer containing 50 mMTris/HCl, pH 8.0, 150 mM NaCl, 2 mM sodium orthovanadate, 1% Nonidet-P40 (NP-40), 0.5% sodium deoxycholate, and 0.1% SDS, containing 1% of a protease inhibitor mixture (AEBSF, pepstatinA, E-64, bestatin, leupeptin, and aprotinin). The soluble fraction was obtained and equal amounts of cell lysate protein were loaded in each lane of a 12% SDS-PAGE or 4/10% to 20% polyacrylamide gel. After electrophoresis and transfer onto a polyvinylidene difluoride (PVDF) membrane, specific protein bands were detected using appropriate primary antibodies (rabbit anti-Nox1, rabbit anti-α-synuclein, mouse anti-Ubiquitin, mouse anti-tyrosine hydroxylase (TH), and mouse anti-β-actin) and secondary antibodies conjugated to alkaline phosphatase or […] peroxidase (anti-rabbit or anti-mouse) followed by Enhanced Chemifluorescence (ECF) detection or Enhanced Chemiluminescence (ECL).
# For dot blot, brain tissues were homogenized in a buffer containing 0.32 M sucrose, 1 mM NaHCO3, 1 mM MgCl2, 0.5 mM CaCl2, and 1% of a protease inhibitor mixture (AEBSF, pepstatinA, E-64, bestatin, leupeptin, and aprotinin). The soluble fraction was obtained by centrifugation at 1000×g and 5 μl of each sample, containing the same amount of protein, was spotted in a PVDF membrane. Membrane was air dried for 4 h and blocked overnight at 4° C. in 5% nonfat dry milk TBST (10 mM Tris-HCl, pH 7.8, 100 mM NaCl, 0.05% Tween 20) solution. Protein spots were detected using the primary antibody, rabbit anti-A11 oligomer (0.5 μg/ml) from Invitrogen, and secondary antibody conjugated to […] peroxidase (anti-rabbit) followed by ECL detection.
# The levels of protein carbonyl were measured in protein extracts from the SN tissues, using the OxiSelect Protein Carbonyl Immunoblot Kit (Cell Biolabs), according to the manufacturer's instructions, with small modifications. […]
smiles,measurement,setting,value
"C[n+]1ccc(-c2cc[n+](C)cc2)cc1 [PQ, paraquat]",increase in protein carbonyl levels after PQ exposure,ipsilateral SN,95%
same,"increase in ubiquitin protein levels, vector+PQ vs vector+vehicle",ipsilateral SN,43%
same,"increase in α-synuclein protein levels, vector+PQ vs vector+vehicle","ipsilateral SN, Western blot",54%
same,"increase in A11-positive oligomers, vector+PQ vs vector+vehicle","ipsilateral SN, dot blot",68%
same,TH protein levels compared with vector+vehicle,"ipsilateral SN, vector+PQ group, or Nox1 knocked down before PQ",65%
same,"Nox1 protein level in the SN, higher than vehicle group","rats, PQ 10 mg/kg i.p. x4",58%
same,increase in α-synuclein protein levels in the SN (Western blot),"rats, PQ 10 mg/kg i.p. x4, vs vehicle",50%
same,"Nox1 protein, higher than vector+vehicle","vector+PQ group, ipsilateral SN",70%
